{
  "source": "patent US20180186796A1",
  "about": "“COMPOUNDS AND USES THEREOF” (LEAD DISCOVERY SIENA S.R.L., priority 2014, published 2018)",
  "key": {"U87 cells [1]": {"system": "U87 cells", "assay": "Orthotopic mouse model of GBM", "format": "in vivo, mice", "settings": "50 mg/kg three times per week for 4 weeks"}, "SH-SY5Y cells": {"system": "SH-SY5Y cells", "assay": "Cell cycle analysis", "format": "cell-based, human", "experimental": "Cells (SH-SY5Y) were seeded in 60-mm petri dishes at a density of 3×10^5. After treatment and subsequent incubation for 24 h at 37° C. and 5% CO2 in humidified atmosphere, harvested cells were washed and fixed overnight with 70% ethanol. Then, ethanol was removed by centrifugation and the cells resuspended in PBS, stained with 50 μg/mL propidium iodide (PI) at 4° C. for 30 min in the dark. Stained cells were analyzed by Tali image based cytometer (Life Technologies, Carlsbad, Calif., USA) counting 20 fields for sample and exported fcs raw data were elaborated by Flowing software (v. 2.5.0, by Perttu Terho, University of Turku, Finland)."}, "[2]": {"assay": "Microsomal stability assay"}, "U87 cells [3]": {"system": "U87 cells", "assay": "Proliferation assay on U87 cells", "format": "cell-based, human", "experimental": "U87 and U251 cells were purchased from European Collection of Cell Cultures (ECACC, Salisbury, UK) and were cultured in DMEM medium supplemented with 10% Foetal Bovine Serum. In order to determine antiproliferative effect of drugs tumor cells were seeded at 2×10^5 cells/ml density and treated with compounds at indicated concentrations. The cultures were maintained at 37° C. in 5% v/v CO2 for 72 h. Cell number and viability were evaluated by Trypan blue exclusion test. Viable cells were expressed as percentage respect to cells treated with vehicle (=100%). Mean and SD values of at least three different experiments are shown.\nU87 and U251 cells were purchased from European Collection of Cell Cultures (ECACC, Salisbury, UK) and were cultured in DMEM medium supplemented with 10% Foetal Bovine Serum. In order to determine antiproliferative effect of drugs tumor cells were seeded at 2×10^5 cells/ml density and treated with compounds at indicated concentrations. The cultures were maintained at 37° C. in 5% v/v CO2 for 72 h. Cell number and viability were evaluated by Trypan blue exclusion test. Viable cells were expressed as percentage respect to untreated cells (=100%/). Mean and SD values of at least three different experiments are shown."}, "PAMPA, BBB permeability": {"assay": "PAMPA, BBB permeability", "settings": "Membrane Retention, BBB"}},
  "data": [
    {"compound": "ClC(Cn1ncc2c(Nc3cccc(Br)c3)nc(SCCN3CCOCC3)nc21)c1ccccc1", "note": "(stereo not drawn) [Si306, N-(3-Bromophenyl)-1-(2-chloro-2-phenylethyl)-6-[(2-morpholin-4-ylethyl)thio]-1H-pyrazolo[3,4-d]pyrimidin-4-amine]", "values": [
      {"measurement": "survival of mice respect to control group", "setting": "U87 cells [1]", "result": "significant ability in prolonging survival"},
      {"measurement": "apoptosis, treated cells", "setting": "SH-SY5Y cells; 10 μM", "result": "about 50%"},
      {"measurement": "accumulation of cells in the G1 phase of cell cycle", "setting": "SH-SY5Y cells; 0.1-10 μM, starting from 0.1 μM", "result": "significant and dose-dependent accumulation"},
      {"measurement": "Metabolic Stab. %", "setting": "[2]; percentage of unmodified drug, Table 8", "result": 97.2, "unit": "%"},
      {"measurement": "Metabolic Stab.", "setting": "[2]; percentage of unmodified parent drug, human liver microsomes 60 min", "result": 96, "unit": "%"},
      {"measurement": "H2O Solubility", "setting": "Water solubility assay; Table 6", "result": 3.7, "unit": "µg/mL"},
      {"measurement": "H2O Sol.", "setting": "Water solubility assay; Table 8, 20° C., 24 h", "result": 3.70, "unit": "µg/mL"},
      {"measurement": "solubility at 24 h", "setting": "Water solubility assay; water, 20 °C, thermodynamic from solid", "result": 6.61, "unit": "µM"},
      {"measurement": "reduction of the total cell number vs control", "setting": "U87 cells [3]; U87, 5 μM, 72 h", "result": "about 50%"},
      {"measurement": "dead cells", "setting": "U87 cells [3]; U87, 30 μM, 72 h", "result": "more than 80%"},
      {"measurement": "antiproliferative effect in combination with mitomycin C", "setting": "U87 cells [3]; U87, 72 h, 1 μM Si306 plus increasing mitomycin C", "result": "synergic antiproliferative effect"},
      {"measurement": "PAMPA BBB (MR %)", "setting": "PAMPA, BBB permeability", "result": "(41.0) %"}
    ]}
  ]
}
